Data taken from patent US6541515B2, “HIV integrase inhibitors” (Merck & Co., Inc., priority 2000, dated 2003).

Molecular target: recombinant integrase (HIV integrase) (Human immunodeficiency virus type 1 group M subtype B, UniProt P04585)
Test: HIV integrase assay: strand transfer catalyzed by recombinant integrase
Type: biochemical
Conditions: strand transfer activity
Method: HIV Integrase Assay: Strand Transfer Catalyzed by Recombinant Integrase and Preintegration Complexes
Assays for the strand transfer activity of integrase can be conducted according to Wolfe et al., J. Virol. 1996, 70: 1424 and Farnet and Bushman, Cell 1997, 88: 483 for recombinant integrase and preintegration complexes, respectively, hereby incorporated by reference. Compound A was tested in the recombinant integrase assay and found to have an IC50 of about 20 micromolar.

Q: For CCCCC(C)C1=C(O)C(=O)C2CC(C)CC(C(=O)O)C2C1(C)C(=O)CCO (stereo not shown) [Compound A], which IC50 is on record?
A: Its IC50 is about 20 µM.
